The text below walks through data of patent US4004976A, “Process for recovering the main sapogenins from the roots of rhizomes of helleborus” (Deutsche Gold- und Silber-Scheideanstalt vormals Roessler, priority 1974, dated 1977).

Some results are limits rather than exact numbers.

In data set [1] the test system is indometacin ulcer of rats. In words: Indometacin ulcer of rats (method of John and Adrian modified by Wilhelmi), ulcer protecting effect. Format: in vivo, rat (albino rats of the strain SIV 50). As to conditions: for Ulcer Protecting Effect: oral, 1 h after indometacin 20 mg/kg, evaluated 24 h after indometacin. The protocol: These tests were carried out according to the method of John and Adrian modified by Wilhelmi on the indometacin ulcer of rats (see Arneimittelforschung Vol. 19 (1969) pages 45 et seq.)
The determination is carried out in the following manner.
Albino rats of the strain SIV 50 (S. Ivanovas, Kisslegg/Allgau) having an initial weight of 250 to 300 grams were held in controlled temperature rooms at 20° to 22° C. in wire cages (Ebeco, Type 3 double width) on a standard diet (Altromin). After 48-hour feeding intervals the animals received 20 mg/kg rat of indometacin in 1.5% tragacanth (1 ml tragacanth solution per 100 grams of rat) applied intragastrally.
One hour after giving the indometacin there was dispensed orally to the animals the test substance. The rats remain otherwise fasting (water ad libitum).
Twenty-four hours after giving the indometacin the animals were killed with CO2. The stomach was resected, opened along the great curvature and washed under flowing water.
The ulcerative changes appear as dark, point or stria shaped spots on the mucosa. The evaluation was done according to the method of Munchow, Arneimittelforschung Vol. 4 (1954) pages 341-344.

The nature of data set [2]: Acute toxicity, LD 50 (method of Miller and Tainter). As to conditions: in vivo; mouse, oral application. The procedure:
The acute toxicity of the compound of the invention in the mouse (expressed by LD 50 mg/kg; method of Miller and Tainter; Proc. Soc. Exper. Biol. a. Med. Vol. 57 (1944) pages 261 et seq.) on oral application, for example, is above 6000 mg/kg.

The test system of the next data set is central nervous system. In words: Muscle relaxing and central nervous system influencing activity. The settings on record: in words, no test described.

In general, LD50 refers to the dose at which mortality reaches 50%. A high value points to lower toxicity. For the molecule `C=C1CC[C@@]2(OC1)O[C@H]1C[C@H]3[C@@H]4CC=C5C[C@@H](O)C[C@@H](O)[C@]5(C)[C@H]4[C@H](O)C[C@]3(C)[C@H]1[C@@H]2C` [compound of the invention, spiro-5,25(27)-diene-1β,3β,11α-triol], the “Ulcer Protecting Effect” value is 58% in data set [1] (Daily Dosage 50 mg/kg, rat); 78% in data set [1] (Daily Dosage 100 mg/kg, rat); 80% in data set [1] (Daily Dosage 200 mg/kg, rat). Moreover, the ulcer healing activity entry in data set [1] (in words) is “has an ulcer healing activity”. In addition, in data set [1] (indometacin ulcers of rats, in words), the antiulcer activity result is recorded as “good antiulcer activity”. Also, the minimal effective dose in data set [1] (po, 24 h, orally, indometacin ulcer, rat, read-out: lowest effective dosage) is 50 mg/kg. Further, the “antiulcer activity compared with Biogastrone” value in data set [1] (versus known medicine Biogastrone, in words) is on record as “comparable to the activity of the known medicine Biogastrone”. This molecule had an LD50 in data set [2] of over 6000 mg/kg. Further, in the data set with central nervous system, the “muscle relaxing and central nervous system influencing activity” value was “muscle relaxing and central nervous system influencing activity has been established”.
